# PMC11089506 (Journal of Medicinal Chemistry, 2024)
# pIC50: −log10 of the molar value. Counter-ions that a name gives are not always drawn.
# Columns and labels:
# Estrogen receptor ERα = target: T1, Estrogen receptor ERα (Homo sapiens, UniProt P03372); assay: radioligand competition binding, [3H]Estradiol
# T1 construct: Eurofins
# [1] = target: T2, α1A (adrenergic receptor) (Homo sapiens, UniProt P35348); assay: radioligand competition binding, [3H]Prazosin
# T2 construct: Eurofins
# GABA transporter = GABA transporter (Rattus norvegicus, UniProt P23978); assay: biochemical; details: read-out: % inhibition of the specific radioligand binding
# GABAA receptor (benzod.) = assay: radioligand competition binding, [3H]Flunitrazepam; design: species or system rat
# NMDA receptor (Glycine) = target: T3, NMDA receptor (Glycine) (Rattus norvegicus, UniProt P35439); assay: radioligand competition binding, [3H]MDL 105,519
# T3 construct: Eurofins
# human 5-HT2CR = human 5-HT2CR (Homo sapiens, UniProt P28335); assay: Ca2+/Fluo-4 assay, antagonist mode (5-HT EC90 as agonist), stable 5-HT2CR-HEK293 cells; details: 5-HT2CR pIC50 ± S.E.M., Table S2
# NET = target: T4, NET (Homo sapiens, UniProt P23975); assay: radioligand competition binding, [3H]nisoxetine
# T4 construct: Eurofins
# Tachykinin receptor NK1 = target: T5, Tachykinin receptor NK1 (Homo sapiens, UniProt P25103); assay: radioligand competition binding, [3H]Substance P
# T5 construct: Eurofins (contract laboratory)
# 5-HT5a = target: T6, 5-HT5a (Homo sapiens, UniProt P47898); assay: radioligand competition binding, [3H]LSD; details: read-out: % inhibition of the specific radioligand binding
# T6 construct: Eurofins
# M3 (muscarinic receptor) = target: T7, M3 (muscarinic receptor) (Homo sapiens, UniProt P20309); assay: radioligand competition binding, [3H]4-DAMP
# T7 construct: Eurofins
# M5 (muscarinic receptor) = target: T8, M5 (muscarinic receptor) (Homo sapiens, UniProt P08912); assay: radioligand competition binding, [3H]4-DAMP
# T8 construct: Eurofins
# T8 sequence (P08912 1-532): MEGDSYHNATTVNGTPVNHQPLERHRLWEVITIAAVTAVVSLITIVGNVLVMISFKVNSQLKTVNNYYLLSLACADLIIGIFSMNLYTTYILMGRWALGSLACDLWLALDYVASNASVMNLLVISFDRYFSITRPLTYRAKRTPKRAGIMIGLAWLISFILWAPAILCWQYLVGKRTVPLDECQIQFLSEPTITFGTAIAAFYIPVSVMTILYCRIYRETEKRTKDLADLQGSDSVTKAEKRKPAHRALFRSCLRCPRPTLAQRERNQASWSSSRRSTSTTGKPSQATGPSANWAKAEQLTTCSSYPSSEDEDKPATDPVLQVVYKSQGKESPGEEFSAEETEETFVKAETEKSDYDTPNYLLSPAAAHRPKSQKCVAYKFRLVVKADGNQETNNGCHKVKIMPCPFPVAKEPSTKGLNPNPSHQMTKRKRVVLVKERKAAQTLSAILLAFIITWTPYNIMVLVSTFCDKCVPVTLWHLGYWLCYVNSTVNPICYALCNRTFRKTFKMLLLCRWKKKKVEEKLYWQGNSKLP
# hERG K+ channel = target: T9, hERG K+ channel (Homo sapiens, UniProt Q12809); assay: radioligand competition binding, [3H]Astemizole; details: human, probe [3H]Astemizole; read-out: % inhibition of the specific radioligand binding
# T9 construct: Eurofins
# K+ Channel (hERG) = target: T10, K+ Channel (hERG) (Homo sapiens, UniProt Q12809); assay: radioligand competition binding, [3H]Astemizole; details: estimated from the % inhibition data
# T10 construct: Eurofins
# Tachykinin receptor NK3 = target: T11, Tachykinin receptor NK3 (Homo sapiens, UniProt P29371); assay: radioligand competition binding, [125I]MePhe7-Neurokinin B
# T11 construct: Eurofins (contract laboratory)
# [2] = estimated from the % inhibition data
# [3] = read-out: % inhibition of the specific radioligand binding
# T7 sequence (P20309 whole entry): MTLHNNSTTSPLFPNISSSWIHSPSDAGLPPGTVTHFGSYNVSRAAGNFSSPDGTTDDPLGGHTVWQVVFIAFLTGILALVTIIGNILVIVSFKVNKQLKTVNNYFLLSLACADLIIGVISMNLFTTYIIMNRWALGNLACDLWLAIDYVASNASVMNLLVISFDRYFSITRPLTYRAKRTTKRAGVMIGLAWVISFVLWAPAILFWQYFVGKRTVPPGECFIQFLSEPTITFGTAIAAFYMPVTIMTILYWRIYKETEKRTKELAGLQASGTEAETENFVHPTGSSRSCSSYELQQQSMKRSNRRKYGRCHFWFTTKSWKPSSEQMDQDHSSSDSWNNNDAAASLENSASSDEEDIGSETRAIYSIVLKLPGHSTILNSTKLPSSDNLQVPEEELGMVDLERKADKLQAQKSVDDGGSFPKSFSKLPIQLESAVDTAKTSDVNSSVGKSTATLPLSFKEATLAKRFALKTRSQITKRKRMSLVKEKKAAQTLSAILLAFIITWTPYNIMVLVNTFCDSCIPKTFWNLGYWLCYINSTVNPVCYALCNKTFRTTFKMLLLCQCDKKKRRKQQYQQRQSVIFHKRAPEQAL
# T1 sequence (P03372 whole entry): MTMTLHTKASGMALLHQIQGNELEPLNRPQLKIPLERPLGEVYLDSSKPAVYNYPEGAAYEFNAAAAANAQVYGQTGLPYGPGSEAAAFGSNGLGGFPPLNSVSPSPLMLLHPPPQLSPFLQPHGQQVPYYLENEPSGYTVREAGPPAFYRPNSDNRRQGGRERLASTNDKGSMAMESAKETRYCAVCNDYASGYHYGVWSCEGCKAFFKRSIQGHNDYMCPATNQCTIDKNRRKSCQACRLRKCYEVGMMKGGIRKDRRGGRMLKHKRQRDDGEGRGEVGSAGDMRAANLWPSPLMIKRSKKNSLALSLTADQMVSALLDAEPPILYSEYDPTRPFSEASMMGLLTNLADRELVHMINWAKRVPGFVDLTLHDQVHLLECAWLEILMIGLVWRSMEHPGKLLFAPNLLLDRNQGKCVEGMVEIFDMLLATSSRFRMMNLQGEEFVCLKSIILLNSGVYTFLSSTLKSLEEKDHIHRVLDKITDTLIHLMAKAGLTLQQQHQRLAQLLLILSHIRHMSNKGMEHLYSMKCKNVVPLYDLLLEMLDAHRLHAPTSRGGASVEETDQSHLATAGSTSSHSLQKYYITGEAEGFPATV
# T4 sequence (P23975 whole entry): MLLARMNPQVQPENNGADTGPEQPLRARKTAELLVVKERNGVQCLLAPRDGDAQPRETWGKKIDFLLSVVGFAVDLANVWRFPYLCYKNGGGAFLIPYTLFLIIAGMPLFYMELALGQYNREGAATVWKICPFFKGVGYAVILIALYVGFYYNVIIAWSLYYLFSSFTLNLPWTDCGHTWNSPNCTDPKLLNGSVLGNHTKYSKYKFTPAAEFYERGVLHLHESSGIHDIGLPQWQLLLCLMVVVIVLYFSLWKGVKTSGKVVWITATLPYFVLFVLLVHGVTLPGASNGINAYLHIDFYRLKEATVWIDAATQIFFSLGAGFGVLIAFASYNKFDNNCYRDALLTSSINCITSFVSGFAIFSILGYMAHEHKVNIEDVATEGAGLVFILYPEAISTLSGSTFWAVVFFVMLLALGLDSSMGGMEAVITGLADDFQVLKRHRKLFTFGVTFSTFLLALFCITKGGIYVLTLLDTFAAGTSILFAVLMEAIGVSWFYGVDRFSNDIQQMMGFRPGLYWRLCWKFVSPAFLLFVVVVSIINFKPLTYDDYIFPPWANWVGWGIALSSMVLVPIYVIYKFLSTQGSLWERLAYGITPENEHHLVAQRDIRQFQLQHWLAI
# T11 sequence (P29371 whole entry): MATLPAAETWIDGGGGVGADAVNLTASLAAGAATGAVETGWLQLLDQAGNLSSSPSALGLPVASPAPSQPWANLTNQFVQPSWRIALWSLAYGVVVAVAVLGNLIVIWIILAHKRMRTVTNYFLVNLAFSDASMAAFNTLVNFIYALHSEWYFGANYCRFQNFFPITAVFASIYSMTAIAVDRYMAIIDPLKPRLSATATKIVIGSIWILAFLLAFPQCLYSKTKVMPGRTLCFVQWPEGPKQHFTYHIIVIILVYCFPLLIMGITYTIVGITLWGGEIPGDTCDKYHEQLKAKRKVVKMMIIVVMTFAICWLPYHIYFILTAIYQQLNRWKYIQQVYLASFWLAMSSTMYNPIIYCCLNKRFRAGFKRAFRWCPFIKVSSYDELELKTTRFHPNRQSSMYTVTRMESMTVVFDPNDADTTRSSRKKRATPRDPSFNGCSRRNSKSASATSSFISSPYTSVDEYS
# T5 sequence (P25103 whole entry): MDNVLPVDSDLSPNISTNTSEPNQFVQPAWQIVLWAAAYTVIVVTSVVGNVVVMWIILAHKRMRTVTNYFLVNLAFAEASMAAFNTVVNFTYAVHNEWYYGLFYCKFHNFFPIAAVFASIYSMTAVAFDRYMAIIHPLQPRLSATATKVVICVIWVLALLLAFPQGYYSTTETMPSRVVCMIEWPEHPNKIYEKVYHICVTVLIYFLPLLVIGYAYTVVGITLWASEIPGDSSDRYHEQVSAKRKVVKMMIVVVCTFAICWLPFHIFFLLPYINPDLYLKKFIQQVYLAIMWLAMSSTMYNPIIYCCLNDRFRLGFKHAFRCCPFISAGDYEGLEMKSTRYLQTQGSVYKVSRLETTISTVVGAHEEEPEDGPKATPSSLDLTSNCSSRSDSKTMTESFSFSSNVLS
# T2 sequence (P35348 whole entry): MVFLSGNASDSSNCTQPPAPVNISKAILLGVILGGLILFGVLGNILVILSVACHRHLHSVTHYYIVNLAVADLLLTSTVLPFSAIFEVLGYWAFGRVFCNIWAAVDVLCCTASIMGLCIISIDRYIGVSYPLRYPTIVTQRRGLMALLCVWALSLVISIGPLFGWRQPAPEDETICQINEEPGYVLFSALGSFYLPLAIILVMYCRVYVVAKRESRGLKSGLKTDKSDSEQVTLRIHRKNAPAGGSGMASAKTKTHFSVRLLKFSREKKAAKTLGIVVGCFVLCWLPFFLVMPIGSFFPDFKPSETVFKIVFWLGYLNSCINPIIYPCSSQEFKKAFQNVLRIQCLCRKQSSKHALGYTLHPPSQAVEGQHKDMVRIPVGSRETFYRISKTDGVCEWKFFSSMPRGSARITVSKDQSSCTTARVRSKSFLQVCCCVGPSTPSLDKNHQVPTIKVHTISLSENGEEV
# T9 sequence (Q12809 whole entry): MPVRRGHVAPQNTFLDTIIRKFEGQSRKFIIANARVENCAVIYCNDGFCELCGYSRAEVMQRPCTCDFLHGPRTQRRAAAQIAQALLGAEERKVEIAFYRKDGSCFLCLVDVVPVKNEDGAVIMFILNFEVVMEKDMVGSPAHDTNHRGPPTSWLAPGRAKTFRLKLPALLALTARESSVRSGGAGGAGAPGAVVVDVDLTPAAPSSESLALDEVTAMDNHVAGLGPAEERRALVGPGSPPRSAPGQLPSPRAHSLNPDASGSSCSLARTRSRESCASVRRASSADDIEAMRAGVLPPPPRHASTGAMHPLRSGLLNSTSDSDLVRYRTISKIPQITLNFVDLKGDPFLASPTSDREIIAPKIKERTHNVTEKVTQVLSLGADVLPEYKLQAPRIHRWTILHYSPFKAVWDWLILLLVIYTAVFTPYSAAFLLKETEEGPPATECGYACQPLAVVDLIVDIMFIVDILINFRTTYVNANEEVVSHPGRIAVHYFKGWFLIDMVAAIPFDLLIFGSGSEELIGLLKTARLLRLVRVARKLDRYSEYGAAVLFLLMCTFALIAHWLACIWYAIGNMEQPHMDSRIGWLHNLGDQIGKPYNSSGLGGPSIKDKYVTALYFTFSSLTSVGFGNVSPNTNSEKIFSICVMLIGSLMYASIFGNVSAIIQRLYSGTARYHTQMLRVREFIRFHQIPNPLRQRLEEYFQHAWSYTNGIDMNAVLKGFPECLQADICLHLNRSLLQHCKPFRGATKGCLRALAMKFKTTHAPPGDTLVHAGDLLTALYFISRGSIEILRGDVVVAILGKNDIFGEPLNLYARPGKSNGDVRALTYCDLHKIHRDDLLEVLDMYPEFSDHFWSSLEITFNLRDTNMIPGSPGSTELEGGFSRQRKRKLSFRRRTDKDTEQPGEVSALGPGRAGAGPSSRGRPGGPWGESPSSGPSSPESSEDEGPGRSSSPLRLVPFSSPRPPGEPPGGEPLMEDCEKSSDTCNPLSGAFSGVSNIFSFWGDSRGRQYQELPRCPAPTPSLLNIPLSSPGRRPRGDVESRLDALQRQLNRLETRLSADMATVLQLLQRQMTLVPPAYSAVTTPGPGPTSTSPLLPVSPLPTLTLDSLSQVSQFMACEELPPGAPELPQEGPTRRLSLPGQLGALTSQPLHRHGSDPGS
compound,measurement,setting,value
"COc1cc(C(F)(F)F)c(OC)cc1[C@@H]1CCCNC1 [(S)-11, 3-(2,5-Dimethoxy-4-(trifluoromethyl)phenyl)piperidine Hydrochloride]",pIC50,Estrogen receptor ERα; [2],< 5.00
same,inhibition at 10 µM,Estrogen receptor ERα; [3],-2%
same,pIC50,[1]; [2],< 5.00
same,inhibition at 10 µM,[1]; [3],32%
same,inhibition at 10 µM,GABA transporter,29%
same,% inhibition of the specific radioligand binding,"GABAA receptor (benzod.); (S)-11 10 μM, n=1",-14%
same,pIC50,GABAA receptor (benzod.); [2],< 5.00
same,pIC50,NMDA receptor (Glycine); [2],< 5.00
same,inhibition at 10 µM,NMDA receptor (Glycine); [3],-20%
same,pIC50,human 5-HT2CR,6.50
same,pIC50,NET; [2],< 5.00
same,inhibition at 10 µM,NET; [3],-4%
same,pIC50,Tachykinin receptor NK1; [2],< 5.00
same,inhibition at 10 µM,Tachykinin receptor NK1; [3],31%
same,inhibition at 10 µM,5-HT5a,4%
same,pIC50,M3 (muscarinic receptor); [2],~6.00
same,inhibition at 1 µM,M3 (muscarinic receptor); [3],41%
same,inhibition at 10 µM,M3 (muscarinic receptor); [3],90%
same,pIC50,M5 (muscarinic receptor); [2],~6.00
same,inhibition at 0.1 µM,M5 (muscarinic receptor); [3],9%
same,inhibition at 1 µM,M5 (muscarinic receptor); [3],57%
same,inhibition at 10 µM,M5 (muscarinic receptor); [3],92%
same,inhibition at 10 µM,hERG K+ channel,32%
same,pIC50,K+ Channel (hERG),< 5.00
same,pIC50,Tachykinin receptor NK3; [2],< 5.00
same,inhibition at 10 µM,Tachykinin receptor NK3; [3],14%
